{
  "source": "patent US20100317577A1",
  "about": "“Methods and Compositions for Inhibiting Cell Death or Enhacing Cell Proliferation” (Department of Health and Human Services, priority 2005, published 2010)",
  "key": {"[1]": {"system": "CD34^+ cells"}, "[2]": {"system": "caspase 3/7", "assay": "Caspase 3/7 activity in HL-60 cells with staurosporine", "type": "cell-based, human", "conditions": "HL-60, staurosporine"}, "[3]": {"system": "HL-60 cells", "conditions": "for effect on staurosporine cytotoxicity (cell number): chimera at forty-eight hours"}, "[4]": {"system": "caspase 3/7", "assay": "Caspase 3/7 activity in monocytes treated with cytotoxic drugs", "type": "cell-based, human"}, "[5]": {"assay": "Protease sensitivity during expression in Pichia pastoris", "conditions": "high concentrations of protease inhibitors", "procedure": "In Pichia, GM-CSF-Bcl-XL was expressed intracellularly. The expression was monitored by Western blot.\nThe cells were harvested by centrifugation at 5,000 g, and, washed with binding buffer (5 mM imidazole, 20 mM Tris/Cl pH 7.9, 0.5M NaCl) containing 2 protease inhibitor tablets, COMPLETE PROTEASE INHIBITOR COCKTAIL EDTA-free (Roche Diagnostics, Indianapolis, Ind.),/50 ml of buffer. Cells were lysed by adding 100 g of acid washed glass beads (0.5 g of beads/ml of initial culture) with 1 cycle of 5 minutes, frequency 30 Hz, in a mixer mill (Retsch MM200, Haan, Del.). The cellular debris were eliminated by centrifugation at 18,000 g, 5 minutes at 4° C."}, "[6]": {"system": "Peripheral blood mononuclear cell (PBMC)", "type": "cell-based, human"}},
  "data": [
    {"compound": "Nc1ccn([C@@H]2O[C@H](CO)[C@@H](O)[C@@H]2O)c(=O)n1", "note": "[cytarabine, reference compound]", "values": [
      {"measurement": "effect on growth of CFU-GM and BFU-E colonies", "setting": "[1]", "result": "drastically impaired"}
    ]},
    {"compound": "CN[C@@H]1C[C@H]2O[C@@](C)([C@@H]1OC)n1c3ccccc3c3c4c(c5c6ccccc6n2c5c31)C(=O)NC4", "note": "[staurosporine, reference compound]", "values": [
      {"measurement": "effect on caspase activity / apoptosis", "setting": "[2]", "result": "induced apoptosis at the highest levels"}
    ]},
    {"compound": "GM-CSF-Bcl-XL: chimeric protein: human GM-CSF fused via glycine-serine-threonine linker to full length human Bcl-XL, N-terminal His tag, expressed in E. coli (SEQ ID NO:1)", "values": [
      {"measurement": "protection of colonies in the presence of cytarabine", "setting": "[1]; CD34+ cells, cytarabine", "result": "selectively protected the CFU-GM colonies relative to BFU-E"},
      {"measurement": "colonies under cytokine deprivation", "setting": "[1]; CD34+ cells, essential medium, no growth factor/cytokines", "result": "protected myeloid precursors from cytokine deprivation"},
      {"measurement": "effect on number of colonies", "setting": "[1]; CD34+ cells, supplemented medium (SCF, erythropoietin, cytokines)", "result": "two-fold"},
      {"measurement": "time of maximum effect on proliferation", "setting": "[3]; HL-60", "result": 48, "unit": "h"},
      {"measurement": "proliferation activity higher than in cells treated with the same molar amount of GM-CSF", "setting": "[3]; HL-60, 48 hours", "result": 30, "unit": "%"},
      {"measurement": "duration of protection from staurosporine", "setting": "[3]; HL-60, staurosporine", "result": "at least seventy-two hours"},
      {"measurement": "effect on staurosporine cytotoxicity (cell number)", "setting": "[3]; HL-60, staurosporine", "result": "approximately the same number of cells as control cultures without staurosporine"},
      {"measurement": "reduction in cell death", "setting": "[3]; HL-60, with staurosporine, seventy-two hours, versus control", "result": 30, "unit": "%"},
      {"measurement": "cells that had died", "setting": "[3]; HL-60, with staurosporine, seventy-two hours, 50% of control cells had died", "result": 20, "unit": "%"},
      {"measurement": "inhibition of caspase 3/7 activity compared with GM-CSF at the same concentration", "setting": "[4]", "result": "more effective"},
      {"measurement": "reduction of caspase activity", "setting": "[4]; monocytes, 2.4 μM, cytotoxic drugs", "result": "more than 50%"},
      {"measurement": "sensitivity to proteolysis", "setting": "[5]", "result": "very sensitive to proteolysis"},
      {"measurement": "protection of PBMC from kinase inhibitors / apoptosis", "setting": "[6]", "result": "protected PBMC from both kinase inhibitors in a dose dependent manner"},
      {"measurement": "increase in cell viability in the presence of AG409", "setting": "[6]; 0.24 µM", "result": 30, "unit": "%"},
      {"measurement": "increase in cell viability in the presence of staurosporine", "setting": "[6]; 0.24 µM", "result": 50, "unit": "%"}
    ]},
    {"compound": "GM-CSF: human granulocyte-macrophage colony-stimulating factor, a cytokine", "values": [
      {"measurement": "effect on staurosporine cytotoxicity (cell number)", "setting": "[3]; HL-60, staurosporine", "result": "not able to block the cytotoxic effect of staurosporine"},
      {"measurement": "prosurvival activity in the presence of AG 490", "setting": "[6]", "result": "completely inhibited"},
      {"measurement": "prosurvival activity in the presence of staurosporine", "setting": "[6]", "result": "largely inhibited"},
      {"measurement": "effect on caspase activity / apoptosis", "setting": "[2]", "result": "reduced"}
    ]}
  ]
}
